Experimental data taken from US9828393B2, “Silylalkyloxyaryl compounds and methods for treating cancer” (THE REGENTS OF THE UNIVERSITY OF COLORADO, a body corporate, priority 2013, dated 2017).
Read-outs that look alike come from different tables or passages of the source.

Experiments:
[1] = system: K-562; experiment: NCI-60 cell line screen (SRB), K-562; assay type: cell-based, human
Protocol: (§1) Drug sensitivity data are provided as GI50s (concentrations required to inhibit growth by 50%). The first row of the text file identifies cell lines, separated by tabs. Subsequent rows contain compound number, compound name, and GI50 for each cell line, each separated by a tab. […] For a typical screening experiment, cells are inoculated into 96 well microtiter plates in 100 μL at plating densities ranging from 5,000 to 40,000 cells/well depending on the doubling time of individual cell lines. After cell inoculation, the microtiter plates are incubated at 37° C., 5% CO2, 95% air and 100% relative humidity for 24 h prior to addition of experimental drugs. After 24 h, two plates of each cell line are fixed in situ with TCA, to represent a measurement of the cell population for each cell line at the time of drug addition (Tz). Experimental drugs are solubilized in dimethyl sulfoxide at 400-fold the desired final maximum test concentration and stored frozen prior to use. At the time of drug addition, an aliquot of frozen concentrate is thawed and diluted to twice the desired final maximum test concentration with complete medium containing 50 μg/ml gentamicin. Additional four, 10-fold or one-half log serial dilutions are made to provide a total of five drug concentrations plus control. Aliquots of 100 μl of these different drug dilutions are added to the appropriate microtiter wells already containing 100 μl of medium, resulting in the required final drug concentrations. Following drug addition, the plates are incubated for an additional 48 h at 37° C., 5% CO2, 95% air, and 100% relative humidity. For adherent cells, the assay is terminated by the addition of cold TCA. Cells are fixed in situ by the gentle addition of 50 μl of cold 50% (w/v) TCA (final concentration, 10% TCA) and incubated for 60 minutes at 4° C. The supernatant is discarded, and the plates are washed five times with tap water and air dried. Sulforhodamine B (SRB) solution (100 μl) at 0.4% (w/v) in 1% acetic acid is added to each well, and plates are incubated for 10 minutes at room temperature. After staining, unbound dye is removed by washing five times with 1% acetic acid and the plates are air dried. Bound stain is subsequently solubilized with 10 mM trizma base, and the absorbance is read on an automated plate reader at a wavelength of 515 nm. For suspension cells, the methodology is the same except that the assay is terminated by fixing settled cells at the bottom of the wells by gently adding 50 μl of 80% TCA (final concentration, 16% TCA). Using the seven absorbance measurements [time zero, (Tz), control growth, (C), and test growth in the presence of drug at the five concentration levels (Ti)], the percentage growth is calculated at each of the drug concentrations levels. […]

[2] = system: RPMI-8226; experiment: NCI-60 cell line screen (SRB), RPMI-8226; assay type: cell-based, human
Protocol: as §1

[3] = system: HOP-92; experiment: NCI-60 cell line screen (SRB), HOP-92; assay type: cell-based, human
Protocol: as §1

[4] = system: NCI-H226; experiment: NCI-60 cell line screen (SRB), NCI-H226; assay type: cell-based, human
Protocol: as §1

[5] = system: HCT-15; experiment: NCI-60 cell line screen (SRB), HCT-15; assay type: cell-based, human
Protocol: as §1

[6] = system: HT29; experiment: NCI-60 cell line screen (SRB), HT29; assay type: cell-based, human
Protocol: as §1

[7] = system: Colon Cancer cell lines; experiment: NCI-60 cell line screen, Colon Cancer panel average; assay type: cell-based, human; settings: read-out: GI50 Average
Protocol: as §1

[8] = system: SF-268; experiment: NCI-60 cell line screen (SRB), SF-268; assay type: cell-based, human
Protocol: as §1

[9] = system: SF-539; experiment: NCI-60 cell line screen (SRB), SF-539; assay type: cell-based, human
Protocol: as §1

[10] = system: LOX IMVI; experiment: NCI-60 cell line screen (SRB), LOX IMVI; assay type: cell-based, human
Protocol: as §1

[11] = system: MALME-3M; experiment: NCI-60 cell line screen (SRB), MALME-3M; assay type: cell-based, human
Protocol: as §1

[12] = system: MDA-MB-435; experiment: NCI-60 cell line screen (SRB), MDA-MB-435; assay type: cell-based, human
Protocol: as §1

[13] = system: SK-MEL-28; experiment: NCI-60 cell line screen (SRB), SK-MEL-28; assay type: cell-based, human
Protocol: as §1

[14] = system: UACC-257; experiment: NCI-60 cell line screen (SRB), UACC-257; assay type: cell-based, human
Protocol: as §1

[15] = system: OVCAR-4; experiment: NCI-60 cell line screen (SRB), OVCAR-4; assay type: cell-based, human
Protocol: as §1

[16] = system: NCI/ADR-RES; experiment: NCI-60 cell line screen (SRB), NCI/ADR-RES; assay type: cell-based, human
Protocol: as §1

[17] = system: A-498; experiment: NCI-60 cell line screen (SRB), A-498; assay type: cell-based, human
Protocol: as §1

[18] = system: SN12C; experiment: NCI-60 cell line screen (SRB), SN12C; assay type: cell-based, human
Protocol: as §1

[19] = molecular target: EZH2 (Enhancer of Zeste Homologue 2), a Histone H3 Lys 27 (H3K27) methyltransferase (Homo sapiens, UniProt Q15910); experiment: OIDD in vitro target-based assay, EZH2 inhibitory activity; assay type: biochemical; settings: OIDD screen; FIG. 1
Protocol: An organosilicon compound of the invention (GH1503) was tested using the in vitro target-based assays through an open innovation drug discovery program (OIDD). The organosilicon compound tested was given OIDD number 2351349879. […] This enzyme plays a critical role in regulating gene expression and is highly expressed in a wide range of cancer types, including bladder, breast, colon, lung, melanoma, pancreatic cancer, melanoma, sarcoma and lymphomas.

Sequence of EZH2 (Enhancer of Zeste Homologue 2), a Histone H3 Lys 27 (H3K27) methyltransferase (Q15910 whole entry): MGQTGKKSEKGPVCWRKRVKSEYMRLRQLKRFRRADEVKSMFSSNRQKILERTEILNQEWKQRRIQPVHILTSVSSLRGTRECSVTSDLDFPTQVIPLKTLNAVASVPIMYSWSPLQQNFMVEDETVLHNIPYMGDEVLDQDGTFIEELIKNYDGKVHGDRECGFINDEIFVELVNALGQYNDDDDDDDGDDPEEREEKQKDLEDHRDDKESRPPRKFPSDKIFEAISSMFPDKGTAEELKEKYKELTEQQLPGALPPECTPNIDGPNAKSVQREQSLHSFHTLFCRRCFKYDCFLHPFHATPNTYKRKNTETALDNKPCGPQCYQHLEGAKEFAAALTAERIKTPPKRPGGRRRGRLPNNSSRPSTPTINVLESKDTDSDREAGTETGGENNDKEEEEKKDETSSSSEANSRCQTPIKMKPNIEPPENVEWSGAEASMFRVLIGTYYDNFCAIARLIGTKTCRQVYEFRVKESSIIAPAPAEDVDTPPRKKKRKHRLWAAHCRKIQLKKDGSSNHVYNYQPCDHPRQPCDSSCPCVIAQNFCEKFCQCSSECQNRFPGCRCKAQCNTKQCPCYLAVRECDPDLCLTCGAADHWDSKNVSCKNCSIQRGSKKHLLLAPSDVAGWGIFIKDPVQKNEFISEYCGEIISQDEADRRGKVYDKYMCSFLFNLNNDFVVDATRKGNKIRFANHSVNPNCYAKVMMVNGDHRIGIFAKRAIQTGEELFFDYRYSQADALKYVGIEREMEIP
Sequence of EZH2 (Enhancer of Zeste Homologue 2), a Histone H3 Lys 27 (H3K27) methyltransferase (O75530 whole entry partner): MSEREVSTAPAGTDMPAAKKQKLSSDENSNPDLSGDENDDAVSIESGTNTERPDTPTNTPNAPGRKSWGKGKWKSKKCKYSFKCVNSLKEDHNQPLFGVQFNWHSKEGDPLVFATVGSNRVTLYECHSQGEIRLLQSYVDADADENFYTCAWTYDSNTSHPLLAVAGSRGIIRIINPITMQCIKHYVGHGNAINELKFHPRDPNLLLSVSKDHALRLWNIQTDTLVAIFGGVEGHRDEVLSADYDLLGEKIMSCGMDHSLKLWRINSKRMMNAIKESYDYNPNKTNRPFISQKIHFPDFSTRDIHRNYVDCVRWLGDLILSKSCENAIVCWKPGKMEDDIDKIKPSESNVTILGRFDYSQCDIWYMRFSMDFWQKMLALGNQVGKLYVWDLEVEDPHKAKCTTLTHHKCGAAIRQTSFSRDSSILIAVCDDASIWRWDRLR
Sequence of EZH2 (Enhancer of Zeste Homologue 2), a Histone H3 Lys 27 (H3K27) methyltransferase (Q15022 whole entry partner): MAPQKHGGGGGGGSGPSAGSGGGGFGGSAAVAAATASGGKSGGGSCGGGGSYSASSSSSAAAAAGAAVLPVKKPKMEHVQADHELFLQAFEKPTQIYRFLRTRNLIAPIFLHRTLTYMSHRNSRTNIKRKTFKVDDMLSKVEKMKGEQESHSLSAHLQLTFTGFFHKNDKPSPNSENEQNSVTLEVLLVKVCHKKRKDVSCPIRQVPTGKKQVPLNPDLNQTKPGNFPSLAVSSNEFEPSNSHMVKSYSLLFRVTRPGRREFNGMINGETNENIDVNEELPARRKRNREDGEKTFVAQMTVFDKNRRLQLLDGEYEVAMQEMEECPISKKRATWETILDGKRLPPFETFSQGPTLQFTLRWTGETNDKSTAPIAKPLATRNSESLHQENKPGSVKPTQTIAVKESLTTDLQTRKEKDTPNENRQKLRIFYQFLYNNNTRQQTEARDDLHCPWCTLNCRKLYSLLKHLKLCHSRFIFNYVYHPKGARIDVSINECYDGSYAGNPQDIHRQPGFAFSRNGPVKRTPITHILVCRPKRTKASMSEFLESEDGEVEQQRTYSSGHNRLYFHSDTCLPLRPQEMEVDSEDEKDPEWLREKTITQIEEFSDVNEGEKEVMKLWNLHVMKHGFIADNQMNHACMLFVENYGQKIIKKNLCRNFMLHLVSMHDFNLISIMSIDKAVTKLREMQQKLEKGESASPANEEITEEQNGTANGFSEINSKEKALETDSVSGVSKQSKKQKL

CCCC[Si](C)(C)COc1ccc(C(=O)N[C@@H](Cc2ccc(-c3ccccc3)cc2)C(=O)NC2CC(C)(C)NC(C)(C)C2)cc1 [GH1504, N^α-{4-[(butyldimethylsilyl)methoxy]-benzoyl}-N-(2,2,6,6-tetramethylpiperidin-4-yl)-(4-phenyl-L-phenylalaninamide)]
GI50 ([1]; Homo sapiens, K562, 48 h): 0.386 µM | GI50 ([2]; Homo sapiens, RPMI-8226, 48 h): 1.95 µM | GI50 ([3]; Homo sapiens, HOP-92, 48 h): 1.37 µM | GI50 ([4]; Homo sapiens, NCI-H226, 48 h): 0.183 µM | GI50 ([5]; Homo sapiens, HCT-15, 48 h): 0.309 µM | GI50 ([6]; Homo sapiens, HT-29, 48 h): 0.315 µM | GI50 ([7]; Homo sapiens): 0.408 µM | GI50 ([8]; Homo sapiens, SF-268, 48 h): 0.679 µM | GI50 ([9]; Homo sapiens, SF-539, 48 h): 1.77 µM | GI50 ([10]; Homo sapiens, 48 h): 0.207 µM | GI50 ([11]; Homo sapiens, Malme-3M, 48 h): 1.75 µM | GI50 ([12]; Homo sapiens, MDA-MB-435, 48 h): 0.292 µM | GI50 ([13]; Homo sapiens, SK-MEL-28, 48 h): 1.33 µM | GI50 ([14]; Homo sapiens, UACC-257, 48 h): 1.78 µM | GI50 ([15]; Homo sapiens, OVCAR-4, 48 h): 0.521 µM | GI50 ([16]; Homo sapiens, 48 h): 1.54 µM | GI50 ([17]; Homo sapiens, A498, 48 h): 1.95 µM | GI50 ([18]; Homo sapiens, 48 h): 0.526 µM

CCOP(=O)(OCC)C(NC(=O)[C@H](Cc1ccc(-c2ccccc2)cc1)NC(=O)c1ccc(OCCC[Si](C)(C)C)cc1)P(=O)(OCC)OCC [GH1505, N^α-{4-[3-(trimethylsilyl)propoxy]-benzoyl}-N-[bis(dietoxyphosphoryl)methyl]-(4-phenyl-L-phenylalaninamide)]
GI50 ([1]; Leukemia, K-562, 48 h drug incubation, read-out: GI50): 3.46 µM | GI50 ([2]; Leukemia, RPMI-8226, 48 h drug incubation, read-out: GI50): 1.97 µM | GI50 ([3]; Non-Small Cell Lung Cancer, HOP-92, 48 h drug incubation, read-out: GI50): 2.09 µM | GI50 ([4]; Non-Small Cell Lung Cancer, NCI-H226, 48 h drug incubation, read-out: GI50): 1.84 µM | GI50 ([5]; Colon Cancer, HCT-15, 48 h drug incubation, read-out: GI50): 2.25 µM | GI50 ([6]; Colon Cancer, HT29, 48 h drug incubation, read-out: GI50): 2.02 µM | GI50 ([7]; average over Colon Cancer panel): 2.12 µM | GI50 ([8]; CNS Cancer, SF-268, 48 h drug incubation, read-out: GI50): 2.07 µM | GI50 ([9]; CNS Cancer, SF-539, 48 h drug incubation, read-out: GI50): 1.82 µM | GI50 ([10]; Melanoma, 48 h drug incubation, read-out: GI50): 1.85 µM | GI50 ([11]; Melanoma, MALME-3M, 48 h drug incubation, read-out: GI50): 1.93 µM | GI50 ([12]; Melanoma, MDA-MB-435, 48 h drug incubation, read-out: GI50): 1.9 µM | GI50 ([13]; Melanoma, SK-MEL-28, 48 h drug incubation, read-out: GI50): 1.76 µM | GI50 ([14]; Melanoma, UACC-257, 48 h drug incubation, read-out: GI50): 2.42 µM | GI50 ([15]; Ovarian Cancer, OVCAR-4, 48 h drug incubation, read-out: GI50): 2.54 µM | GI50 ([16]; Ovarian Cancer, 48 h drug incubation, read-out: GI50): 3.31 µM | GI50 ([17]; Renal Cancer, A-498, 48 h drug incubation, read-out: GI50): 3.64 µM | GI50 ([18]; Renal Cancer, 48 h drug incubation, read-out: GI50): 1.71 µM

CC1(C)CC(NC(=O)[C@H](Cc2ccc(OCc3c(Cl)cccc3Cl)cc2)NC(=O)c2ccc(OCCC[Si](C)(C)C)cc2)CC(C)(C)N1 [GH1501, N^α-{4-[3-(trimethylsilyl)propoxy]-benzoyl}-N-(2,2,6,6-tetramethylpiperidin-4-yl)-[O-(2,6-dichlorobenzyl)-L-tyrosinamide]]
GI50 ([1]; Homo sapiens, K562, 48 h): 0.322 µM | GI50 ([2]; Homo sapiens, RPMI-8226, 48 h): 1.32 µM | GI50 ([3]; Homo sapiens, HOP-92, 48 h): 1.17 µM | GI50 ([4]; Homo sapiens, NCI-H226, 48 h): 1.77 µM | GI50 ([5]; Homo sapiens, HCT-15, 48 h): 0.357 µM | GI50 ([6]; Homo sapiens, HT-29, 48 h): 0.263 µM | GI50 ([7]; Homo sapiens): 0.395 µM | GI50 ([8]; Homo sapiens, SF-268, 48 h): 0.903 µM | GI50 ([9]; Homo sapiens, SF-539, 48 h): 1.77 µM | GI50 ([10]; Homo sapiens, 48 h): 0.197 µM | GI50 ([11]; Homo sapiens, Malme-3M, 48 h): 1.46 µM | GI50 ([12]; Homo sapiens, MDA-MB-435, 48 h): 0.269 µM | GI50 ([13]; Homo sapiens, SK-MEL-28, 48 h): 1.5 µM | GI50 ([14]; Homo sapiens, UACC-257, 48 h): 1.88 µM | GI50 ([15]; Homo sapiens, OVCAR-4, 48 h): 1.62 µM | GI50 ([16]; Homo sapiens, 48 h): 1.48 µM | GI50 ([17]; Homo sapiens, A498, 48 h): 1.75 µM | GI50 ([18]; Homo sapiens, 48 h): 0.564 µM

CCCC[Si](C)(C)COc1ccc(C(=O)N[C@@H](Cc2ccc(OCc3c(Cl)cccc3Cl)cc2)C(=O)NC2CC(C)(C)NC(C)(C)C2)cc1 [GH1503, N^α-{4-[(butyldimethylsilyl)methoxy]-benzoyl}-N-(2,2,6,6-tetramethylpiperidin-4-yl)-[O-(2,6-dichlorobenzyl)-L-tyrosinamide]]
GI50 ([1]; Homo sapiens, K562, Leukemia, K-562, 48 h drug incubation, read-out: GI50): 0.333 µM | GI50 ([2]; Homo sapiens, Leukemia, RPMI-8226, 48 h drug incubation, read-out: GI50): 0.893 µM | GI50 ([3]; Homo sapiens, Non-Small Cell Lung Cancer, HOP-92, 48 h drug incubation, read-out: GI50): 1.11 µM | GI50 ([4]; Homo sapiens, Non-Small Cell Lung Cancer, NCI-H226, 48 h drug incubation, read-out: GI50): 1.34 µM | GI50 ([5]; Homo sapiens, Colon Cancer, HCT-15, 48 h drug incubation, read-out: GI50): 0.323 µM | GI50 ([6]; Homo sapiens, HT-29, Colon Cancer, HT29, 48 h drug incubation, read-out: GI50): 0.342 µM | GI50 ([7]; Homo sapiens, average over Colon Cancer panel): 0.442 µM | GI50 ([8]; Homo sapiens, CNS Cancer, SF-268, 48 h drug incubation, read-out: GI50): 0.611 µM | GI50 ([9]; Homo sapiens, CNS Cancer, SF-539, 48 h drug incubation, read-out: GI50): 1.73 µM | GI50 ([10]; Homo sapiens, Melanoma, 48 h drug incubation, read-out: GI50): 0.191 µM | GI50 ([11]; Homo sapiens, Melanoma, MALME-3M, 48 h drug incubation, read-out: GI50): 1.2 µM | GI50 ([12]; Homo sapiens, Melanoma, MDA-MB-435, 48 h drug incubation, read-out: GI50): 0.25 µM | GI50 ([13]; Homo sapiens, Melanoma, SK-MEL-28, 48 h drug incubation, read-out: GI50): 1.58 µM | GI50 ([14]; Homo sapiens, Melanoma, UACC-257, 48 h drug incubation, read-out: GI50): 1.87 µM | GI50 ([15]; Homo sapiens, Ovarian Cancer, OVCAR-4, 48 h drug incubation, read-out: GI50): 0.711 µM | GI50 ([16]; Homo sapiens, Ovarian Cancer, 48 h drug incubation, read-out: GI50): 1.25 µM | GI50 ([17]; Homo sapiens, A498, Renal Cancer, A-498, 48 h drug incubation, read-out: GI50): 1.95 µM | GI50 ([18]; Homo sapiens, Renal Cancer, 48 h drug incubation, read-out: GI50): 0.613 µM | IC50 [19]: in the micromolar range
